# Experimental data reported in patent US10538554B2, “Peptides and uses therefor as antiviral agents” (priority 2015, dated 2020).
# Read-outs that look alike come from different tables or passages of the source. Bridge positions count the residues as written; N and C are the ends. Square brackets hold non-standard residues; d marks the D form. Peptide text beside a SMILES is read from it.
# How the values were obtained:
# H9N2 A/Iran/16/2000 = conditions: 48 h
# [1] = test system: H1N1 A1/Malaysia/302/1954; conditions: A1/Malaysia/302/1954, 48 h
# H3N8 A/Miami/2/63 = conditions: A/Miami/2/63, 48 h
# H3N2 A/HK/8/1968 = conditions: A/HK/8/1968, 48 h
# H1N1 A/NY/18/2009 = conditions: A/NY/18/2009, 48 h, 10 μM
# H1N1 A/PR/8/1934 = conditions: A/PR/8/1934, 48 h, 10 μM
Compound,% inhibition H9N2 (H9N2 A/Iran/16/2000; 10 μM),% inhibition H1N1 ([1]; 10 μM),% inhibition H3N8 (H3N8 A/Miami/2/63; 10 μM),% inhibition H3N2 (H3N2 A/HK/8/1968; 10 μM),% Inhibition Pdm 2009 (H1N1 A/NY/18/2009),% Inhibition PR/8 (H1N1 A/PR/8/1934),% inhibition H9N2 (H9N2 A/Iran/16/2000; 50 μM),% inhibition H1N1 ([1]; 50 μM),% inhibition H3N8 (H3N8 A/Miami/2/63; 50 μM),% inhibition H3N2 (H3N2 A/HK/8/1968; 50 μM)
"CC[C@@H](C)[C@H]1NC(=O)[C@@H](Cc2ccccc2)NC(=O)[C@@H](CCCCN)NC(=O)[C@@H](Cc2ccccc2)NC(=O)[C@@H](Cc2c[nH]c3ccccc23)NC(=O)[C@@H]([C@H](C)O)NC(=O)[C@H](NC(=O)[C@H](CCCCN)NC(=O)[C@H](CCCCN)NC(=O)[C@H](CCCNC(=N)N)NC(=O)[C@@H](N)CCCNC(=N)N)CSSC[C@H](C(=O)O)NC(=O)[C@@H](CC(N)=O)NC1=O [PSP IV A9, H-RRKKctwfkfinc-OH] (H-RRKK[dC][dT][dW][dF][dK][dF][dI][dN][dC]-OH; disulfide 5-13)",39%,56%,79%,73%,66%,74%,–,–,–,–
"CC[C@@H](C)[C@H]1NC(=O)[C@@H](Cc2ccccc2)NC(=O)[C@@H](Cc2ccc(O)cc2)NC(=O)[C@@H](Cc2ccccc2)NC(=O)[C@@H](Cc2c[nH]c3ccccc23)NC(=O)[C@@H]([C@H](C)O)NC(=O)[C@H](NC(=O)[C@H](CCCCN)NC(=O)[C@H](CCCCN)NC(=O)[C@H](CCCNC(=N)N)NC(=O)[C@@H](N)CCCNC(=N)N)CSSC[C@H](C(=O)O)NC(=O)[C@@H](CC(N)=O)NC1=O [PSP IV A20, H-RRKKctwfyfinc-OH] (H-RRKK[dC][dT][dW][dF][dY][dF][dI][dN][dC]-OH; disulfide 5-13)",85%,79%,89%,89%,79%,85%,–,–,–,–
"CC[C@@H](C)[C@H]1NC(=O)[C@@H](Cc2ccccc2)NC(=O)[C@@H](CS)NC(=O)[C@@H](Cc2ccccc2)NC(=O)[C@@H](Cc2c[nH]c3ccccc23)NC(=O)[C@@H]([C@H](C)O)NC(=O)[C@H](NC(=O)[C@H](CCCCN)NC(=O)[C@H](CCCCN)NC(=O)[C@H](CCCNC(=N)N)NC(=O)[C@@H](N)CCCNC(=N)N)CSSC[C@H](C(=O)O)NC(=O)[C@@H](CC(N)=O)NC1=O [PSP IV A2, H-RRKKctwfcfinc-OH] (H-RRKK[dC][dT][dW][dF][dC][dF][dI][dN][dC]-OH; disulfide 5-13)",64%,60%,76%,82%,68%,68%,–,–,–,–
"CC[C@@H](C)[C@H]1NC(=O)[C@@H](Cc2ccccc2)NC(=O)[C@@H](C(C)C)NC(=O)[C@@H](Cc2ccccc2)NC(=O)[C@@H](Cc2c[nH]c3ccccc23)NC(=O)[C@@H]([C@H](C)O)NC(=O)[C@H](NC(=O)[C@H](CCCCN)NC(=O)[C@H](CCCCN)NC(=O)[C@H](CCCNC(=N)N)NC(=O)[C@@H](N)CCCNC(=N)N)CSSC[C@H](C(=O)O)NC(=O)[C@@H](CC(N)=O)NC1=O [PSP IV A18, H-RRKKctwfvfinc-OH] (H-RRKK[dC][dT][dW][dF][dV][dF][dI][dN][dC]-OH; disulfide 5-13)",95%,84%,96%,96%,97%,96%,–,–,–,–
"CC[C@@H](C)[C@H]1NC(=O)[C@@H](Cc2ccccc2)NC(=O)CNC(=O)[C@@H](Cc2ccccc2)NC(=O)[C@@H](Cc2c[nH]c3ccccc23)NC(=O)[C@@H]([C@H](C)O)NC(=O)[C@H](NC(=O)[C@H](CCCCN)NC(=O)[C@H](CCCCN)NC(=O)[C@H](CCCNC(=N)N)NC(=O)[C@@H](N)CCCNC(=N)N)CSSC[C@H](C(=O)O)NC(=O)[C@@H](CC(N)=O)NC1=O [PSP IV A6, H-RRKKctwfGfinc-OH] (H-RRKK[dC][dT][dW][dF]G[dF][dI][dN][dC]-OH; disulfide 5-13)",35%,59%,57%,–,47%,–,–,–,–,–
"CC[C@@H](C)[C@H]1NC(=O)[C@@H](Cc2ccccc2)NC(=O)[C@@H](C)NC(=O)[C@@H](Cc2ccccc2)NC(=O)[C@@H](Cc2c[nH]c3ccccc23)NC(=O)[C@@H]([C@H](C)O)NC(=O)[C@H](NC(=O)[C@H](CCCCN)NC(=O)[C@H](CCCCN)NC(=O)[C@H](CCCNC(=N)N)NC(=O)[C@@H](N)CCCNC(=N)N)CSSC[C@H](C(=O)O)NC(=O)[C@@H](CC(N)=O)NC1=O [PSP IV A1, H-RRKKctwfafinc-OH] (H-RRKK[dC][dT][dW][dF][dA][dF][dI][dN][dC]-OH; disulfide 5-13)",77%,78%,83%,–,78%,–,–,–,–,–
"CC[C@@H](C)[C@H]1NC(=O)[C@@H](Cc2ccccc2)NC(=O)[C@@H](CC(=O)O)NC(=O)[C@@H](Cc2ccccc2)NC(=O)[C@@H](Cc2c[nH]c3ccccc23)NC(=O)[C@@H]([C@H](C)O)NC(=O)[C@H](NC(=O)[C@H](CCCCN)NC(=O)[C@H](CCCCN)NC(=O)[C@H](CCCNC(=N)N)NC(=O)[C@@H](N)CCCNC(=N)N)CSSC[C@H](C(=O)O)NC(=O)[C@@H](CC(N)=O)NC1=O [PSP IV A3, H-RRKKctwfdfinc-OH] (H-RRKK[dC][dT][dW][dF][dD][dF][dI][dN][dC]-OH; disulfide 5-13)",30%,49%,59%,–,72%,–,–,–,–,–
"CC[C@@H](C)[C@H]1NC(=O)[C@@H](Cc2ccccc2)NC(=O)[C@@H](CC(N)=O)NC(=O)[C@@H](Cc2ccccc2)NC(=O)[C@@H](Cc2c[nH]c3ccccc23)NC(=O)[C@@H]([C@H](C)O)NC(=O)[C@H](NC(=O)[C@H](CCCCN)NC(=O)[C@H](CCCCN)NC(=O)[C@H](CCCNC(=N)N)NC(=O)[C@@H](N)CCCNC(=N)N)CSSC[C@H](C(=O)O)NC(=O)[C@@H](CC(N)=O)NC1=O [PSP IV A12, H-RRKKctwfnfinc-OH] (H-RRKK[dC][dT][dW][dF][dN][dF][dI][dN][dC]-OH; disulfide 5-13)",48%,67%,56%,–,60%,–,–,–,–,–
"CC[C@@H](C)[C@H]1NC(=O)[C@@H](Cc2ccccc2)NC(=O)[C@@H](CCC(=O)O)NC(=O)[C@@H](Cc2ccccc2)NC(=O)[C@@H](Cc2c[nH]c3ccccc23)NC(=O)[C@@H]([C@H](C)O)NC(=O)[C@H](NC(=O)[C@H](CCCCN)NC(=O)[C@H](CCCCN)NC(=O)[C@H](CCCNC(=N)N)NC(=O)[C@@H](N)CCCNC(=N)N)CSSC[C@H](C(=O)O)NC(=O)[C@@H](CC(N)=O)NC1=O [PSP IV A4, H-RRKKctwfefinc-OH] (H-RRKK[dC][dT][dW][dF][dE][dF][dI][dN][dC]-OH; disulfide 5-13)",53%,62%,72%,–,45%,–,–,–,–,–
"CC[C@@H](C)[C@H]1NC(=O)[C@@H](Cc2ccccc2)NC(=O)[C@@H](CCCNC(=N)N)NC(=O)[C@@H](Cc2c[nH]c3ccccc23)NC(=O)[C@@H](Cc2c[nH]c3ccccc23)NC(=O)[C@@H]([C@H](C)O)NC(=O)[C@H](NC(=O)[C@H](CCCCN)NC(=O)[C@H](CCCCN)NC(=O)[C@H](CCCNC(=N)N)NC(=O)[C@@H](N)CCCNC(=N)N)CSSC[C@H](C(=O)O)NC(=O)[C@@H](CC(N)=O)NC1=O [PSP III B19, H-RRKKctwwrfinc-OH] (H-RRKK[dC][dT][dW][dW][dR][dF][dI][dN][dC]-OH; disulfide 5-13)",–,–,–,–,–,–,97%,94%,100%,100%
